What was measured:
[1] = system: colitis model mice (2.0% DSS, C57BL/6J); assay: DSS-induced colitis model mice: colitis-suppressing action (body weight, DAI score, colon length); format: in vivo; details: oral, 7 days; for effect on colitis (overall): indigo amount 0.5 mg/day (equivalent to 25 mg/kg/day)
Procedure: As mice used in an animal test, C57BL/6J was started to use after preliminary breeding for 3 days after purchase. First, a 2.0% solution of DSS (dextran sulfate sodium salt, molecular weight 36,000 to 44,000) was given to mice to cause colitis to prepare colitis model mice. The colitis model mice were administered with only sterilized water to obtain control mice. It should be noted that, in order to maintain the colitis state of the mice for 7 days, the 2.0% DDS (dextran sulfate sodium salt) solution was orally administered at the same time as the administration of the sterile water. Five capsules (equivalent to indigo amount of 0.5 mg) and 15 capsules (equivalent to indigo amount of 1.5 mg) both of which were the indigo-containing capsules A were each orally administered to 5 specimens of colitis mice for 7 days. It should be noted that, in order to maintain the colitis state of the mice for 7 days, the 2.0% DDS (dextran sulfate sodium salt) solution was orally administered at the same time when the oral administration of the capsules A. Colitis-suppressing action of indigo was evaluated by a decrease in the endpoints such as body weight (BW), disease activity index (DAI) score (DAI score: a total score (0 to 12) of the number of defecation, bloody stool, mucosal findings, and general endpoints scored 0 to 3 on a 4-point scale), and colon length. […] FIG. 3 is a graph representing results of disease activity index score (DAI score). It should be noted that the DAI score refers to an evaluation index described in the literature “Sutherland L R, Martin F, Greer S, et al: 5-Aminosalicylic acid enema in the treatment of distal colitis, proctosigmoiditis, and proctitis. Gastroenterology 92: 1894-1898, 1987”. FIG. 4 is a graph representing results of measuring colon length. Since the colon length is shortened by causing colitis, the colon length of each mouse group was measured as another index for the evaluation of colitis, and the average value thereof was represented by a histogram.

[2] = system: mouse model of colitis; details: cited from earlier work
[3] = indigo amount 0.5 mg/day, vs control group

With O=C1/C(=C2\Nc3ccccc3C2=O)Nc2ccccc21 [indigo powder, indigo] the “effect on colitis (overall)” value [1] was “no effect of indigo was observed”, the “effect on colitis (overall)” value ([1]; listed as powder) was “no effect” and the “changes in body weight (BW)” value [1, 3] was “decreasing the body weight was also observed as compared with the control group”. For the same compound, the colon length [1, 3] was “the same as that of the control group”, the “effect in colitis model mice” value ([2]; low dose 60 mg/kg/day of powder) was “effective” and the “therapeutic effect in mouse model of colitis” value ([2]; powder administration) was “had a therapeutic effect”.

Reference: patent US12357579B2, “Capsule for treating ulcerative colitis” (KEIO UNIVERSITY, priority 2018, dated 2025)
